Like-named read-outs stand apart in the source and are kept apart here.
Target: T1, Human TRPV3 (Homo sapiens, UniProt Q8NET8)
T1 construct: expressed in transfected cells; host or cells: CHO cells (G-418 selection)
T1 sequence (Q8NET8 1-790): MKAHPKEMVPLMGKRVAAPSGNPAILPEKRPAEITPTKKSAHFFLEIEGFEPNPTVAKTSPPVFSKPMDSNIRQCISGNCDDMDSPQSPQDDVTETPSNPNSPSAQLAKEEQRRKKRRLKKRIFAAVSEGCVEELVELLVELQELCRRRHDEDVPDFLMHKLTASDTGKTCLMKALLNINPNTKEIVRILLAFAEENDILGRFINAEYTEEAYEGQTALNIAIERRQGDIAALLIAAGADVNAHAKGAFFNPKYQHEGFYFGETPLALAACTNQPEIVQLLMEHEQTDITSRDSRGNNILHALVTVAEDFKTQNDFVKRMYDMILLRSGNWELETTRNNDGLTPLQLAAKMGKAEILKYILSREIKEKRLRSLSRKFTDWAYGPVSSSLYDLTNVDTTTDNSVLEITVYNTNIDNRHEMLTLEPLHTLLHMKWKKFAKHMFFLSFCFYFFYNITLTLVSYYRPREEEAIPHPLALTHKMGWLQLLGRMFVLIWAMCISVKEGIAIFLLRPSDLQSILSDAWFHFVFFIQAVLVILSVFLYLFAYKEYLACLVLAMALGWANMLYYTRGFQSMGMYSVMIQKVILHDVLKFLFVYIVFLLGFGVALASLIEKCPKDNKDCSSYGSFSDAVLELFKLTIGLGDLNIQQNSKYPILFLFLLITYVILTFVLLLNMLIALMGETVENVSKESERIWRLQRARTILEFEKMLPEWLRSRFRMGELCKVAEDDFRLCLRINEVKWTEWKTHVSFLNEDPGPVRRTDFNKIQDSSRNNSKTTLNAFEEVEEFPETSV
Assay: Screening for TRPV3 antagonist using the 45Calcium uptake assay (inhibition of 2-APB induced cellular uptake of radioactive calcium)
Assay type: cell-based
Settings: for inhibition at 1 µM: read-out: Percentage inhibition at 1.0 μM; for inhibition at 10 µM: read-out: Percentage inhibition at 10.0 μM; for IC50: class symbols
Text: The illustrative examples of the present invention are screened for TRPV3 activity according to a modified procedure described in Tóth, A., Kedei, N., Wang, Y. and Blumberg, P. M. Life Sciences (2003), 73, 487-498. The screening of the compounds can be carried out by other methods and procedures known to a person skilled in the art. Such screening methods may be found in (a) Hu, H.-Z. et al. J. Biol. Chem. (2004), 279, 35741-35747; (b) Smith, G. D. et al. Nature (2002), 418, 186-190; (c) Peier, A. M. et al. Science (2002), 296, 2046-2049.
Screening for TRPV3 Antagonist Using the ^45Calcium Uptake Assay:
The inhibition of TRPV3 receptor activation was followed as inhibition of 2-aminoethoxydiphenylborate (2-APB) induced cellular uptake of radioactive calcium. Test compounds were dissolved in dimethyl sulfoxide (DMSO) to prepare 20 mM stock solution and then diluted using plain medium with DMEM/F-12 containing 1.8 mM CaCl2 to get desired concentration. Final concentration of DMSO in the reaction was 0.5% (v/v). Human TRPV3 expressing CHO cells were grown in DMEM/F-12 medium with 10% FBS, 1% penicillin-streptomycin solution, 400 μg/ml of G-418. Cells were seeded 24 h prior to the assay in 96 well plates so as to get ˜50,000 cells per well on the day of experiment. Cells were treated with test compounds for 10 minutes followed by addition of 2-APB at a final concentration of 500 μM and 5 μCi/ml ^45Ca^+2 for 4 minutes. Cells were washed and lysed using buffer containing 1% Triton X-100, 0.1% deoxycholate and 0.1% SDS. Radioactivity in the lysate was measured in Packardt Top count after addition of liquid scintillant. Concentration response curves were plotted as a % of maximal response obtained in the absence of test antagonist. IC50 value was calculated from concentration response curve by nonlinear regression analysis using GraphPad PRISM software.
Percentage inhibition at concentrations of 1.0 μM and 10.0 μM are given in the table along with IC50 (nM) values for selected examples.

[1] = 1.0 μM test compound, human TRPV3 expressing CHO cells, 2-APB 500 μM
[2] = 10.0 μM test compound, human TRPV3 expressing CHO cells, 2-APB 500 μM
[3] = human TRPV3 expressing CHO cells, 2-APB 500 μM

Structure (SMILES) | inhibition at 1 µM [1] | inhibition at 10 µM [2] | also measured
COc1cccc(/C=C/c2nc3sc4ccccc4n3c(=O)c2-c2ccc(C#N)cc2)c1OCc1ccccn1 [Example 90] | – | – | Percentage inhibition at 10.0 μM: 81.57%; Percentage inhibition at 1.0 μM [1]: 51.24%
O=c1c(-c2ccc(C(F)(F)F)cc2)c(/C=C/c2cccnc2)nc2sccn12 [Example 39, 7-[(E)-2-Pyridin-3-ylvinyl]-6-[4-(trifluoromethyl)phenyl]-5H-[1,3]thiazolo[3,2-a]pyrimidin-5-one] | 4.11% | 15.2% | –
COc1ccc(/C=C/c2nc3sccn3c(=O)c2-c2ccc(C(F)(F)F)cc2)cc1OCC1CC1 [Example 37, 7-[(E)-2-(3-Cyclopropylmethoxy-4-methoxyphenyl)-1-ethenyl]-6-[4-(trifluoromethyl)-phenyl]-5H-[1,3]thiazolo[3,2-a]pyrimidin-5-one] | 39.6% | 88.1% | –
O=c1c(-c2ccc(C(F)(F)F)cc2)c(/C=C/c2ccccc2OCC2CC2)nc2sccn12 [Example 24] | 36.3% | 67.4% | –
COc1cccc(/C=C/c2nc3sccn3c(=O)c2-c2ccc(C#N)cc2)c1OCC1CC1 [Example 16, 4-{7-[(E)-2-[2-(Cyclopropylmethoxy)-3-methoxyphenyl]-1-ethenyl}-5-oxo-5H-[1,3]thiazolo[3,2-a]pyrimidin-6-yl}benzonitrile] | 59.3% | 91.7% | IC50 [3]: 500 to 1000 nM
COc1cccc(/C=C/c2nc3sccn3c(=O)c2-c2ccc(C(F)(F)F)cc2)c1OCC1CCC1 [Example 34, 7-[(E)-2-(2-Cyclobutylmethoxy-3-methoxyphenyl)-1-ethenyl]-6-[4-(trifluoromethyl)phenyl]-5H-[1,3]thiazolo[3,2-a]pyrimidin-5-one] | 43.1% | 78.4% | –
COc1cccc(/C=C/c2nc3sccn3c(=O)c2-c2ccc(OCCCC#N)cc2)c1OCC1CC1 [Example 46] | – | – | inhibition at 1 µM (CHO): 10%; inhibition at 10 µM (CHO): 52.8%
COc1cccc(/C=C/c2nc3sccn3c(=O)c2-c2ccc(C#N)cc2)c1OCc1cccc(F)c1 [Example 20] | – | – | Percentage inhibition at 1.0 μM [1]: 56.5%; Percentage inhibition at 10.0 μM [2]: 79.3%
COc1cccc(/C=C/c2nc3sccn3c(=O)c2-c2ccc(C(F)(F)F)cc2)c1OCC1CC1 [Example 33, {7-[(E)-2-(2-Cyclopropylmethoxy)-3-methoxyphenyl]-1-ethenyl]-6-[4-(trifluoromethyl)phenyl]-5H-[1,3]thiazolo[3,2-a]pyrimidin-5-one] | 85.3% | 97.4% | IC50 [3]: < 250 nM
COc1cccc(/C=C/c2nc3sccn3c(=O)c2-c2ccc(C#N)cc2)c1OCc1ccccn1 [Example 21] | – | – | Percentage inhibition at 10.0 μM: 11.60%; Percentage inhibition at 1.0 μM [1]: 14.88%
COc1cccc(/C=C/c2nc3sccn3c(=O)c2-c2ccc(C(F)(F)F)cc2)c1OCCCC#N [Example 30] | – | – | Percentage inhibition at 1.0 μM [1]: 45.2%; Percentage inhibition at 10.0 μM [2]: 75.9%
COc1cccc(/C=C/c2nc3sccn3c(=O)c2-c2ccc(C(F)(F)F)cc2)c1OCc1ccccn1 [Example 36] | – | – | Percentage inhibition at 1.0 μM [1]: 11.2%; Percentage inhibition at 10.0 μM [2]: 0.0%
CCCCOc1c(/C=C/c2nc3sccn3c(=O)c2-c2ccc(C(F)(F)F)cc2)cccc1OC [Example 26, 7-[(E)-2-(2-Butoxy-3-methoxyphenyl)-1-ethenyl]-6-[4-(trifluoromethyl)phenyl]-5H-[1,3]thiazolo[3,2-a]pyrimidin-5-one] | 56.6% | 84.5% | –
COc1cccc(/C=C/c2nc3sc4ccccc4n3c(=O)c2-c2ccc(C#N)cc2)c1OCC1CC1 [Example 86] | – | – | Percentage inhibition at 1.0 μM [1]: 45.5%; Percentage inhibition at 10.0 μM [2]: 75.6%

Further lines, with some results ahead:

inhibition at 1 µM [1] | inhibition at 10 µM [2] | Structure (SMILES) | also measured
61.9% | 79.3% | COc1cccc(/C=C/c2nc3scc(C)n3c(=O)c2-c2ccc(OC(F)(F)F)cc2)c1OCC1CC1 [Example 76, 7-[(E)-2-(2-Cyclopropylmethoxy-3-methoxyphenyl)-1-ethenyl]-3-methyl-6-[4-(trifluoromethoxy)phenyl]-5H-[1,3]thiazolo[3,2-a]pyrimidin-5-one] | –
24.7% | 44% | COc1cccc(/C=C/c2nc3sc(C)c(C)n3c(=O)c2-c2ccc(OC(F)(F)F)cc2)c1OCC1CC1 [Example 77, 7-[(E)-2-(2-Cyclopropylmethoxy-3-methoxyphenyl)-1-ethenyl]-2,3-dimethyl-6-[4-(trifluoromethoxy)phenyl]-5H-[1,3]thiazolo[3,2-a]pyrimidin-5-one] | –
23% | 30% | COc1cccc(/C=C/c2nc3n(C)c4ccccc4n3c(=O)c2-c2ccc(OC(F)(F)F)cc2)c1OCC1CC1 [Example 98, 2-[(E)-2-(2-Cyclopropylmethoxy-3-methoxyphenyl)vinyl]-3-(4-trifluoromethoxyphenyl)-10-methylpyrimido[1,2-a]benzimidazol-4(10H)-one] | –
4.6% | 31.3% | COc1cccc(/C=C/c2nc3sccn3c(=O)c2-c2cccc(C(F)(F)F)c2)c1OCC1CC1 [Example 40, 7-[(E)-2-(2-Cyclopropylmethoxy-3-methoxyphenyl)-1-ethenyl]-6-[3-(trifluoromethyl)phenyl]-5H-[1,3]thiazolo[3,2-a]pyrimidin-5-one] | –
23.4% | 34.1% | CCCOc1cccc(/C=C/c2nc3sccn3c(=O)c2-c2ccc(OC(F)(F)F)cc2)c1OCC1CC1 [Example 66, 7-{(E)-2-[2-(Cyclopropylmethoxy)-3-propoxyphenyl}-1-ethenyl]-6-(4-trifluoromethoxy-phenyl)-5H-[1,3]thiazolo[3,2-a]pyrimidin-5-one] | –
78.4% | 90.3% | COc1cccc(/C=C/c2nc3sccn3c(=O)c2-c2ccc(OC(F)(F)F)cc2)c1OCC(C)(C)C [Example 52, 7-[(E)-2-{3-Methoxy-2-neopentyloxyphenyl}-1-ethenyl]-6-[4-(trifluoromethoxy)phenyl]-5H-[1,3]thiazolo[3,2-a]pyrimidin-5-one] | IC50 [3]: < 250 nM
43.7% | 69.2% | COc1cccc(/C=C/c2nc3sccn3c(=O)c2-c2ccc(OCC3CC3)cc2)c1OCC1CC1 [Example 47, 7-[(E)-2-(2-Cyclopropylmethoxy-3-methoxyphenyl)-1-ethenyl]-6-(4-cyclopropylmethoxyphenyl]-5H-[1,3]thiazolo[3,2-a]pyrimidin-5-one] | –
79.2% | 94.9% | COCCOc1c(/C=C/c2nc3sccn3c(=O)c2-c2ccc(OC(F)(F)F)cc2)cccc1OC [Example 73, 7-[(E)-2-{3-Methoxy-2-(2-methoxyethoxy)phenyl}-1-ethenyl]-6-[4-(trifluoromethoxy)-phenyl]-5H-[1,3]thiazolo[3,2-a]pyrimidin-5-one] | IC50 [3]: 250 to 500 nM
81.4% | 91.8% | O=c1c(-c2ccc(OC(F)(F)F)cc2)c(/C=C/c2cccc(OC(F)F)c2OCC2CC2)nc2sccn12 [Example 63, 7-{(E)-2-[2-(Cyclopropylmethoxy)-3-difluoromethoxyphenyl]-1-ethenyl}-6-(4-trifluoromethoxyphenyl)-5H-[1,3]thiazolo[3,2-a]pyrimidin-5-one] | IC50 [3]: < 250 nM
